Test results: PMC7259601 (PLoS ONE, 2020)

Key:
THP-1 cells = test: FACS based CD11B induction assay in THP-1; assay type: cell-based; details: Homo sapiens; THP-1, 96 hr; read-out: EC50 induction of differentiation marker CD11B
Method: Human leukemic THP1 (ACC-16) cells ([…]) were obtained from DMSZ and maintained in RPMI 1640 medium (Cat# R0883; Sigma Aldrich) supplemented with 10 % heat inactivated fetal bovine serum (FBS; Cat# F9665; Sigma-Aldrich) and 2 mM Glutamine (Cat# X0550 Biowest).
THP-1 cells are acute leukemia cells with blast phenotype that can be induced to differentiate into a monocyte/macrophage phenotype by cell penetrant KDM1A inhibitors. Differentiation can be followed by measurement of induction of differentiation surface markers like CD11B. Cells were treated for 96 hr with KDM1A inhibitors. Fluorescent assisted cell sorting (FACS) analysis of CD11B expression was performed on 1.5 x 10^5 THP-1 cells (obtained from German Collection of microorganism and Cell Cultures; ACC-16) using a phycoerythrin-conjugated human CD11B-specific mouse monoclonal antibody (eBiosciences, #12-0118) at dilution 1:5 on a cytomics FC500 (Beckman Coulter) with FlowJo software. The mouse IgG1 K isotype (eBiosciences, #12-4714) was used as a control antibody. Concentration-response curves were determined out by assaying inhibitors at concentrations ranging between 0.32 and 200 nM.

rats = test: Functional Observation Battery; assay type: in vivo; details: single dose of up to 100 mg/kg
[1] = tested on: ER (non-selective) (h) (agonist radioligand); test: CEREP Diversity Panel; assay type: binding, human; parameters: dose or concentration left out as unconfirmed
Method: (§1) […]. MAO-A inhibition at 10 μM was 37%, in line with internal data.

[2] = tested on: AR (h) (agonist radioligand); test: CEREP Diversity Panel; assay type: binding, human; parameters: dose or concentration left out as unconfirmed
Method: as §1

KDM1A = KDM1A target engagement in brain cortex (chemoprobe ELISA); assay type: in vivo, SAMP8 mice; details: end of 2 month treatment
Method: Native protein extracts of cells or tissues were obtained in presence of 25 nM OG-881 chemoprobe according the protocol described in Mascaró et al..
Luminescent ELISA: for quantification of total amount of KDM1A protein (TOTAL KDM1A), Luminunc Plates Maxisorp (NUNC; #436110) were coated with a monoclonal anti-KDM1A antibody (Abcam; #ab53269) at 2 µg/mL in PBS. For quantification of the fraction not bound to inhibitor (FREE KDM1A), plates were coated with streptavidin (Promega Biotech Ibérica; #Z7041) at 10 µg/mL in PBS. Coating was performed at 4°C O/N. Wells were washed 3 times in PBS, 0.1% Tween-20 and blocked with PBS-BSA 1% (Sigma; #A3059) for 2 hr. A KDM1A calibration curve of full length rKDM1A (Active Motif; #31334) diluted in PBS was included in each plate. Plates were then incubated 1 hr at RT and washed 5 times. […] Plates were centrifuged during 30 sec to 1,500 x g, shaken for 1 min at 100rpm and incubated inside the micropate reader (Infinite 200, Tecan) for 3 min at 25 °C. The relative luminescence units (RLU) readouts were acquired using a 1000 msec integration time and 150 msec settle time.
All assays were run as triplicate technical replicates (n = 3). After raw data processing (robust elimination of outliers according to Grubbs criteria and subtraction of blank signal on technical replicates), the target engagement was calculated as […]

Nc1nnc(CN[C@@H]2C[C@H]2c2ccc(OCc3ccccc3)cc2)o1 [ORY-2001, vafidemstat]
EC50 (THP-1 cells): 21 nM | neurological alterations in the Functional Observation Battery (rats): did not lead to neurological alterations | % inhibition [1]: 13% | % inhibition [2]: -2% | KDM1A target engagement in cortex (KDM1A): correlated with the observed functional effects on memory
